Results from ChEMBL document CHEMBL5604063, “ASAP - DENV-2 NS2B-NS3 protease fluorescence dose response” (2024).
“And” between values parts separate entries of the source, which are not always exact repeats. Equal values may be shown once.

Target: Genome polyprotein (dengue virus type 2, UniProt P29990)
Format: functional, Thailand/16681/1984

Genome polyprotein, sequence (P29990 1346-1475 limits assumed): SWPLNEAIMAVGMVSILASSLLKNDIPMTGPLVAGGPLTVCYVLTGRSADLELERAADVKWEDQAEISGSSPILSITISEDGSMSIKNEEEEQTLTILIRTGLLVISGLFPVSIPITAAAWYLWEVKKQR
Genome polyprotein, sequence (P29990 1476-2093 limits assumed): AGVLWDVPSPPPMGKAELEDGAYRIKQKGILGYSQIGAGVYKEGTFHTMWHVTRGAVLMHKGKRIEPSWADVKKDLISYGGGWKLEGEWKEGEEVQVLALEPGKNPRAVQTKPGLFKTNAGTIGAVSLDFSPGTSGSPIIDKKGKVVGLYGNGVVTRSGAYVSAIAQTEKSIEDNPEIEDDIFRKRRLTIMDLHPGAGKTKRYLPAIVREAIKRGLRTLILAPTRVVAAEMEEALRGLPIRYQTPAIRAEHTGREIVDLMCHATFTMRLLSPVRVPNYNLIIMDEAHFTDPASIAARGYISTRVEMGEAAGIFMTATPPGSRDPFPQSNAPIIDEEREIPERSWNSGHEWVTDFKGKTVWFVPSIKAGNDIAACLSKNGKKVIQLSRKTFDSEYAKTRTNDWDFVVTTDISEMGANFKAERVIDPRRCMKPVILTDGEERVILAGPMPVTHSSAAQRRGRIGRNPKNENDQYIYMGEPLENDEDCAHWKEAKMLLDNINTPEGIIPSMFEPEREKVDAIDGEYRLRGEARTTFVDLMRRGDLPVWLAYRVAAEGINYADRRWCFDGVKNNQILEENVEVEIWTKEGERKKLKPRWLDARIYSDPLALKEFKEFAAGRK

NCc1ccc(-c2ncc(OCC3CCNCC3)nc2-c2ccc(-c3ccoc3)cc2)cc1
IC50: > 99.5 µM

NCc1ccc(-c2ncc(OCC3CCNCC3)nc2-c2ccc(C3CCOCC3)cc2)cc1
IC50: > 99.5 µM

NCc1cccc(NC(=O)[C@H](NC(=O)OCc2ccccc2)C(C2CCC2)C2CCC2)c1
IC50: > 99.5 µM

CN1CCN(C2CN(C(=O)c3cc(Br)cc(C=O)c3)C2)CC1
IC50: > 99.5 µM

CCn1cc(-c2ccnc(N(C)C)c2)nc(N2CC[C@@H](CO)C2)c1=O
IC50: > 99.5 µM

CCn1cc(-c2ccc(OC)c(C)c2)nc(N2CC[C@@H](CO)C2)c1=O
IC50: > 99.5 µM

NCc1cccc(NC(=O)[C@@H](NC(=O)OCc2ccccc2)c2ccc(-c3ccnc(N)c3)cc2)c1
IC50: > 99.5 µM

CCOc1ccc(F)cc1-c1cn(CC)c(=O)c(N2CC[C@@H](CO)C2)n1
IC50: > 99.5 µM

CCc1ccc(-c2ccc([C@@H](NC(=O)OCc3ccccc3)C(=O)Nc3cccc(CN)c3)cc2)cc1
IC50: 6.61 µM

CCn1cc(-c2cncc(OC)c2)nc(N2CC[C@@H](CO)C2)c1=O
IC50: > 99.5 µM

O=S(=O)(Nc1ccc(Cl)cc1CO)c1ccc(Oc2ccccc2Cl)cc1
IC50: 78.8 µM

CN1CCN(C2CCN(C(=O)c3cc(C=O)n(C)c3)CC2)CC1
IC50: > 99.5 µM

Cn1nccc1-c1ccc([C@@H](NC(=O)OCc2ccccc2)C(=O)Nc2cccc(CN)c2)cc1
IC50: > 99.5 µM

CCn1cc(-c2cccc(CN(C)C)c2)nc(N2CC[C@@H](CO)C2)c1=O
IC50: > 99.5 µM

CCn1cc(-c2ccccc2C(C)C)nc(N2CC[C@@H](CO)C2)c1=O
IC50: > 99.5 µM

CCn1cc(-c2ccc3c(c2)CCNC3)nc(N2CC[C@@H](CO)C2)c1=O
IC50: > 99.5 µM

c1ccc2c(CN3CCC(c4nn[nH]n4)CC3)c[nH]c2c1
IC50: > 99.5 µM

COC(=O)c1cc(Cl)ccc1NS(=O)(=O)c1ccc(O)cc1
IC50: > 99.5 µM

CCn1cc(-c2cnn(C)n2)nc(N2CC[C@@H](CO)C2)c1=O
IC50: > 99.5 µM

O=C(O)c1cc(Cl)cc(NS(=O)(=O)c2ccc(Oc3ccccc3Cl)cc2)c1
IC50: > 99.5 µM

CCn1cc(-c2ccc3ocnc3c2)nc(N2CC[C@@H](CO)C2)c1=O
IC50: > 99.5 µM

CCOc1cccc(N2CC[C@@H](CO)C2)c1
IC50: > 99.5 µM

CCn1cc(-c2cccc(-n3cccn3)c2)nc(N2CC[C@@H](CO)C2)c1=O
IC50: > 99.5 µM

NCc1cccc(NC(=O)[C@@H](NC(=O)OCc2ccccc2)c2cccc(Br)c2)c1
IC50: 85.8 µM

N#Cc1cc(F)cc(N2CC[C@H](CO)C2)c1
IC50: > 99.5 µM

CCn1cc(-c2cccc(OC)c2F)nc(N2CC[C@@H](CO)C2)c1=O
IC50: > 99.5 µM

CCn1cc(-c2cnn(-c3ccccc3)c2)nc(N2CC[C@@H](CO)C2)c1=O
IC50: > 99.5 µM

CCn1cc(-c2cn(C)nc2C)nc(N2CC[C@@H](CO)C2)c1=O
IC50: > 99.5 µM

Cc1cnc(Oc2ccc(S(=O)(=O)Nc3ccc(Cl)cc3C(=O)O)cc2)cn1
IC50: > 99.5 µM

O=C(O)c1cc(Cl)ccc1NS(=O)(=O)c1ccc(Oc2ccccc2Cl)nc1
IC50: 46.9 µM

Cc1cc(C)c(C(=O)N2C[C@H]3CN(C)CC[C@@]3(CO)C2)cc1C=O
IC50: > 99.5 µM

COc1cccc(-c2ccc([C@@H](NC(=O)OCc3ccccc3)C(=O)Nc3cccc(CN)c3)cc2)c1
IC50: 9.12 µM and 6.13 µM and 6.64 µM

CN(C)C[C@@]1(O)CCN(C(=O)c2cc(C=O)c[nH]2)C1
IC50: > 99.5 µM

Cc1cccc(-c2ccc([C@@H](NC(=O)OCc3ccccc3)C(=O)Nc3cccc(CN)c3)cc2)c1
IC50: 9.31 µM

COC(=O)c1cc(Cl)ccc1NS(=O)(=O)c1ccc(Oc2ccccc2Cl)nc1
IC50: > 99.5 µM

COC(=O)[C@@H]1CC2(CC[C@@H]1NS(=O)(=O)c1ccc(Oc3ccccc3Cl)cc1)CC2
IC50: > 99.5 µM

NCc1cccc(N2CCN(C(=O)OCc3ccccc3)[C@H](c3ccc(OCc4ccccc4)cc3)C2=O)c1
IC50: 74.7 µM

NCc1cccc(NC(=O)[C@]2(NC(=O)OCc3ccccc3)CCOc3ccccc32)c1
IC50: > 99.5 µM

O=C(O)c1cc(Cl)ccc1NS(=O)(=O)c1ccc(N[C@H]2CCOC2)nc1
IC50: > 99.5 µM

COc1cc(Cl)cc(C(=O)O)c1NS(=O)(=O)c1ccc(Oc2ccccc2Cl)cc1
IC50: 22.6 µM

CCc1ccccc1-c1ccc([C@@H](NC(=O)OCc2ccccc2)C(=O)Nc2cccc(CN)c2)cc1
IC50: 9.17 µM

CCn1cc(C2=CCCNC2)nc(N2CC[C@@H](CO)C2)c1=O
IC50: > 99.5 µM

NCc1cccc(NC(=O)CN2CCN(C(=O)OCc3ccccc3)CC2)c1
IC50: > 99.5 µM

CCn1cc(-c2ccc3nn(C)cc3c2)nc(N2CC[C@@H](CO)C2)c1=O
IC50: > 99.5 µM

CCn1cc(-c2cc(F)ccc2C)nc(N2CC[C@@H](CO)C2)c1=O
IC50: > 99.5 µM

O=C(NCc1cc(Cl)ccc1NS(=O)(=O)c1ccc(Oc2ccccc2Cl)cc1)C1CC1
IC50: > 99.5 µM

NCc1cccc(NC(=O)[C@H](NC(=O)OCc2ccccc2)C2CCCCC2)c1
IC50: > 99.5 µM

Cn1cc(-c2ccc([C@@H](NC(=O)OCc3ccccc3)C(=O)Nc3cccc(CN)c3)cc2)cn1
IC50: > 99.5 µM

CN(c1ncnc(-c2ccsc2C=O)n1)C1CCNCC1
IC50: > 99.5 µM

O=C(O)c1ccsc1NS(=O)(=O)c1ccc(Oc2ccccc2Cl)cc1
IC50: 20.1 µM

CCn1cc(-c2c[nH]c3ncccc23)nc(N2CC[C@@H](CO)C2)c1=O
IC50: > 99.5 µM

CCn1cc(-c2ccc(C(F)F)nc2)nc(N2CC[C@@H](CO)C2)c1=O
IC50: > 99.5 µM

C[C@@H](NC(=O)c1ccc2[nH]cc(C=O)c2c1)C1=CCN(C)CC1
IC50: > 99.5 µM

CCc1ccc(-c2cn(CC)c(=O)c(N3CC[C@@H](CO)C3)n2)s1
IC50: > 99.5 µM

NCc1cccc(NC(=O)[C@@H](NC(=O)OCc2ccccc2)c2ccc(-c3cncnc3)cc2)c1
IC50: > 99.5 µM

C[C@H]1CN(C(=O)Cc2ccc(C=O)[nH]2)CCN1C1CCCC1
IC50: > 99.5 µM

CCn1cc(-c2cnccc2C)nc(N2CC[C@@H](CO)C2)c1=O
IC50: > 99.5 µM

CCn1cc(-c2cnc3ccnn3c2)nc(N2CC[C@@H](CO)C2)c1=O
IC50: > 99.5 µM

O=C(O)c1cscc1NS(=O)(=O)c1ccc(Oc2ccccc2Cl)cc1
IC50: 34.1 µM

CC1(C)CCC([C@@H](NC(=O)OCc2ccccc2)C(=O)Nc2cccc(CN)c2)CC1
IC50: > 99.5 µM

Cc1ccc(F)c(-c2ccc([C@@H](NC(=O)OCc3ccccc3)C(=O)Nc3cccc(CN)c3)cc2)c1
IC50: 9.46 µM

NCc1cccc(NC(=O)[C@@H](NC(=O)OCc2ccccc2)c2ccc(-c3cccnc3F)cc2)c1
IC50: 71.4 µM

NCc1cccc(NC(=O)[C@@H](NC(=O)OCc2ccccc2)c2ccc(-c3cc4cccnc4s3)cc2)c1
IC50: 6.07 µM

O=C(O)CN(c1ccc(Cl)cc1)S(=O)(=O)c1ccc(Oc2ccccc2Cl)cc1
IC50: 86.6 µM

CCn1nccc1-c1cn(CC)c(=O)c(N2CC[C@@H](CO)C2)n1
IC50: > 99.5 µM

CCn1cc(-c2ccc([C@@H](NC(=O)OCc3ccccc3)C(=O)Nc3cccc(CN)c3)cc2)cn1
IC50: > 99.5 µM

O=Cc1ccc(CC(=O)N2C[C@@H](O)[C@H](N3CCOCC3)C2)cc1
IC50: > 99.5 µM

Cc1nccnc1Oc1ccc(S(=O)(=O)Nc2ccc(Cl)cc2C(=O)O)cc1
IC50: > 99.5 µM

NCc1cccc(NC(=O)C2(CNC(=O)OCc3ccccc3)CCCC2)c1
IC50: > 99.5 µM

O=C(O)c1cc(Cl)ccc1NS(=O)(=O)c1ccc(OCc2ncccn2)cc1
IC50: > 99.5 µM

NC(=O)c1ccc(N2CC[C@@H](CO)C2)cc1
IC50: > 99.5 µM

O=C(NCC1CC1)[C@H]1CCCC[C@H]1NS(=O)(=O)c1ccc(Oc2ccccc2Cl)cc1
IC50: > 99.5 µM

CCn1cc(-c2ccncc2F)nc(N2CC[C@@H](CO)C2)c1=O
IC50: > 99.5 µM

CCn1cc(-c2ccccc2C(=O)OC)nc(N2CC[C@@H](CO)C2)c1=O
IC50: > 99.5 µM
